Source: US10472334B2, “Small molecules for inhibiting male fertility” (The University of North Carolina at Chapel Hill, priority 2014, dated 2019)

Legend:
[1] = In vitro metabolism, human liver microsomes; type: in vitro ADME; details: read-out: Human liver microsomes metabolism T½
Description: In vitro metabolism was evaluated using the methods described in Obach, R. S. et al. (1997), J. Pharmacol. Exp. Ther., 283: 46-58.
Intrinsic Clearance (microsomes, S9, cryopreserved hepatocytes, recombinant CYP, recombinant UGT) Metabolic stability, expressed as percent of the parent compound remaining, was calculated by comparing the peak area of the compound at the time point relative to that at time-O. The half-life (T½) was estimated from the slope of the initial linear range of the logarithmic curve of compound remaining (%) vs. time, assuming the first-order kinetics. The apparent intrinsic clearance (CLint, in μL/min/pmol, μL/min/mg or μL/min/Mcell) was calculated according to the following formula: […]

recombinant human EPPIN = molecular target: T1, recombinant human EPPIN (Homo sapiens, UniProt O95925); experiment: AlphaScreen epitope assay: inhibition of anti-EPPIN (S21C, C-terminal domain) antibody binding to histidine-tagged recombinant human EPPIN; details: Figure 2; TZ4_121 concentration-response, percent of control value vs. log concentration; His-tagged rhEPPIN (E. coli, lacks part of N-terminal secretory signal) on NTA-donor beads, anti-EPPIN S21C on protein A-acceptor beads; spread printed +/- 10.4
T1 construct: His-tagged (FLAG tag also stated); E. coli M15[pREP-4], Ni-NTA purified; AlphaScreen with anti-EPPIN S21C antibody
T1 sequence (O95925 22-133): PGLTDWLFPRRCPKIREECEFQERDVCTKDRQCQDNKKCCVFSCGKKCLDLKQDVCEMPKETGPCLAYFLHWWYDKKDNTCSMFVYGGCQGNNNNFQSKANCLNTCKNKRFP
Excerpt: Two assays for high throughput screening (HTS) of compounds have been established and validated. In one embodiment, these assays are based on an adaptation of the AlphaScreen™ assay developed by PerkinElmer (Waltham, Mass.). In the AlphaScreen™ (amplified luminescent proximity homogeneous assay) assay donor and acceptor beads (˜200 nm) are employed to hold interacting protein molecules. When the interacting protein molecules bind (for example EPPIN {on the donor bead} and anti-EPPIN {on the acceptor bead}), singlet state oxygen molecules diffuse from the donor bead to the acceptor bead (˜4 μsec) and fluorophores subsequently emit light at 520-620 nm. In the primary compound screen, histidine-tagged recombinant human EPPIN is attached to NTA-donor beads and anti-EPPIN (S21C; against the EPPIN C-terminal domain) is attached to protein A-acceptor beads. This epitope specific assay gives strong and stable binding between EPPIN and the antibody. […]

half-life [1]: 41 min
IC50 (recombinant human EPPIN): 38.2 µM
Compound: CCOC(=O)CSc1nc(NNC(=O)OC)nc(Nc2ccc(NC(=O)OC)c(O)c2)n1 [TZ4_121, [4-(3-Hydroxy-4-methoxycarbonylamino-phenylamino)-6-(N′methoxycarbonyl-hydrazino)-1,3,5-triazin-2-ylsulfanyl]-acetic acid ethyl ester]
